# Counter-ions that a name gives are not always drawn. Like-named read-outs stand apart in the source and are kept apart here.
# What was measured:
# [1] = system: guinea pig platelets; assay: In vitro inhibition of collagen-induced platelet aggregation, guinea pig platelets (PRP); format: cell-based, guinea pig (male Dunkin-Hartley); details: collagen 1 μg/ml, 3 minutes of contact at 37° C.
# Experimental: (§1) A study of the inhibitory activity of the compounds of formula I on platelet aggregation was carried out in vitro, i.e. by direct contact of solutions of variable concentrations of the compounds with platelets freshly separated from a sample of total blood, taken under standardized conditions, from laboratory animals (guinea pigs) and from healthy human subjects who have not received any substances or drugs that might interfere with blood clotting. The anti-platelet-aggregating activity was also studied ex vivo/vitro, i.e. after administration of the substances claimed to guinea pigs to measure the intensity and duration of the anti-aggregating action induced by the fraction of the test product absorbed and circulating in the blood.
# Blood is taken by intracardiac puncture from male Dunkin-Hartley guinea pigs (weighing about 330 g), at a rate of 4.5 ml per 0.5 ml of trisodium citrate (concentration of the aqueous solution: 1.55%) in order to prevent all trace of clotting. The platelet-rich plasma (PRP) is obtained by centrifuging the tubes of total blood for 15 minutes at 150 g.
# The PRPs are collected as "pools". The platelets contained in these pools are counted using a Coulter ZM haematology automatic device: if necessary, a dilution is carried out in order for the platelet concentration in the plasma to be between 200,000 and 400,000 platelets/mm^3. Simultaneously, other samples of these pools serve to prepare the platelet-poor plasma (PPP) by centrifugation at 1500 g for 15 minutes.
# The kinetic study of the platelet aggregation is carried out by adding a collagen solution (1 μg/ml) to a volume of PRP, using a Chrono-log Corporation aggregometer (490-D1 or 560 VS) which uses an optical detection of the appearance of the thrombus.
# The measurements of the aggregation inhibition are carried out after 3 minutes of contact at 37° C. with agitation.
# [2] = system: guinea pig platelets; assay: Ex vivo/vitro inhibition of platelet aggregation after administration via the gastric route in guinea pigs; set-up: species or system guinea pig (Dunkin-Hartley); details: fasted guinea pigs; for inhibition at 10 mg/kg / inhibition at 150 mg/kg: Cavia porcellus, Platelet
# Experimental: as §1, with “blood. Evaluation of the anti-platelet-aggregating activity of the compounds is carried out in the same guinea pigs as those mentioned above (Dunkin-Hartley strain). […] The allocation of the treatments to the animals is random. The blood is taken and then treated under the same conditions as those described above for the in vitro studies. The results of the inhibition of the platelet aggregation obtained for each test concentration make it possible to calculate the IC50 concentration of each test product and the kinetics of the inhibitory effect and its duration of action.” for “blood.”
# [3] = Cavia porcellus, Platelet, 0.05 h
# [4] = 10 mg/kg, 1 h before blood sampling, read-out: % of g.r. inhibition guinea pig ex vivo, d = 10 mg/kg, 1 h
# [5] = 10 mg/kg, 2 h before blood sampling, read-out: % of g.r. inhibition guinea pig ex vivo, d = 10 mg/kg, 2 h
compound,measurement,setting,value
"O=C(CNC(=O)C(CCC1CCNCC1)CCC1CCNCC1)NCC(NS(=O)(=O)c1cc2ccccc2o1)C(=O)O (stereo not drawn) [Example 68, 2-[(1-Benzofuran-2-ylsulphonyl)amino]-3-{[2-({4-(4-piperidyl)-2-[2-(4-piperidyl)ethyl]butanoyl}amino)acetyl]amino}propanoic Acid Dihydrochloride]",IC50,[1]; [3],180 nM
same,inhibition at 10 mg/kg,[2]; [4],-72%
same,inhibition at 10 mg/kg,[2]; [5],-71%
"O=C(CNC(=O)C(CCC1CCNCC1)CCC1CCNCC1)NCC(NS(=O)(=O)c1cccc(C(F)(F)F)c1)C(=O)O (stereo not drawn) [Example 44, 2-({[3-(Trifluoromethyl)phenyl]sulphonyl}amino)-3-{[2-({4-(4-piperidyl)-2-[2-(4-piperidyl)ethyl]butanoyl}amino)acetyl]amino}propanoic Acid Dihydrochloride]",IC50,[1]; [3],510 nM
same,inhibition at 10 mg/kg,[2]; [4],-22%
same,inhibition at 10 mg/kg,[2]; [5],-35%
"O=C(CNC(=O)C(CCC1CCNCC1)CCC1CCNCC1)NC[C@H](NS(=O)(=O)c1cccnc1)C(=O)O [Example 56, 2-[(3-Pyridylsulphonyl)amino]3-{[2-({4-(4-piperidyl)-2-[2-(4-piperidyl)ethyl]butanoyl}amino)acetyl]amino}propanoic Acid Trihydrochloride]",IC50,[1]; [3],230 nM
same,inhibition at 10 mg/kg,[2]; [4],-61%
same,inhibition at 10 mg/kg,[2]; [5],-50%
"CC(=O)Nc1nc(C)c(S(=O)(=O)NC(CNC(=O)CNC(=O)C(CCC2CCNCC2)CCC2CCNCC2)C(=O)O)s1 (stereo not drawn) [Example 50, 2-({[2-(Acetylamino)-4-methyl-1,3-thiazol-5-yl]sulphonyl}amino)-3-{[2-({4-(4-piperidyl)-2-[2-(4-piperidyl)ethyl]butanoyl}amino)acetyl]amino}propanoic Acid Dihydrochloride]",IC50,[1]; [3],3300 nM
same,inhibition at 10 mg/kg,[2]; [4],-22%
same,inhibition at 10 mg/kg,[2]; [5],-39%
"O=C(CNC(=O)C(CCC1CCNCC1)CCC1CCNCC1)NCC(NS(=O)(=O)c1ccc2c(c1)OCCO2)C(=O)O (stereo not drawn) [Example 58, 2-[(2,3-Dihydro-1,4-benzodioxin-6-ylsulphonyl)amino]-3-{[2-({4-(4-piperidyl)-2-[2-(4-piperidyl)ethyl]butanoyl}amino)acetyl]amino}propanoic Acid Dihydrochloride]",IC50,[1]; [3],590 nM
same,inhibition at 10 mg/kg,[2]; [4],-36%
same,inhibition at 10 mg/kg,[2]; [5],-21%
"O=C(CNC(=O)C(CCC1CCNCC1)CCC1CCNCC1)NC[C@H](NS(=O)(=O)CCCCl)C(=O)O [Example 51, 2-{[(3-Chloropropyl)sulphonyl]amino}-3-{[2-({4-(4-piperidyl)-2-[2-(4-piperidyl)ethyl]butanoyl}amino)acetyl]amino}propanoic Acid Dihydrochloride]",IC50,[1]; [3],11000 nM
same,inhibition at 10 mg/kg,[2]; [4],4%
same,inhibition at 10 mg/kg,[2]; [5],-21%
"O=C(CNC(=O)C(CCC1CCNCC1)CCC1CCNCC1)NCC(NS(=O)(=O)c1ccc(C2CCCCC2)cc1)C(=O)O (stereo not drawn) [Example 61, 2-{[(4-Cyclohexylphenyl)sulphonyl]amino)-3-{[2-({4-(4-piperidyl)-2-[2-(4-piperidyl)ethyl]butanoyl}amino)acetyl]amino}propanoic Acid Dihydrochloride]",IC50,[1]; [3],1400 nM
same,inhibition at 10 mg/kg,[2]; [4],-21%
same,inhibition at 10 mg/kg,[2]; [5],-9%
"O=C(CNC(=O)C(CCC1CCNCC1)CCC1CCNCC1)NCC(NS(=O)(=O)c1ccc(F)c2ccccc12)C(=O)O (stereo not drawn) [Example 62, 2-{[(4-Fluoro-1-naphthyl)sulphonyl]amino}-3-{[2-({4-(4-piperidyl)-2-[2-(4-piperidyl)ethyl]butanoyl}amino)acetyl]amino}propanoic Acid Dihydrochloride]",IC50,[1]; [3],95 nM
same,inhibition at 10 mg/kg,[2]; [4],-69%
same,inhibition at 10 mg/kg,[2]; [5],-33%
"Cc1ccc(S(=O)(=O)NC(CNC(=O)CNC(=O)C(CCC2CCNCC2)CCC2CCNCC2)C(=O)O)cc1 (stereo not drawn) [Example 39, 2-{[(4-Methylphenyl)sulphonyl]amino}-3-{[2-({4-(4-piperidyl)-2-[2-(4-piperidyl)ethyl]butanoyl}amino)acetyl]amino}propanoic Acid Dihydrochloride]",IC50,[1]; [3],250 nM
same,inhibition at 10 mg/kg,[2]; [4],-32%
same,inhibition at 10 mg/kg,[2]; [5],-10%
"COc1ccc(C(CC(=O)O)NC(=O)CNC(=O)C(CCC2CCNCC2)CCC2CCNCC2)cc1 (stereo not drawn) [Example 7, 3-(4-Methoxyphenyl)-3-{[2-({4-(4-piperidyl)-2-[2-(4-piperidyl)ethyl]butanoyl}amino)acetyl]amino}propanoic Acid Dihydrochloride]",IC50,[1]; [3],10000 nM
same,inhibition at 150 mg/kg,"[2]; 1 h before blood sampling, read-out: % of g.r. inhibition guinea pig ex vivo, d = 150 mg/kg, 1 h",-39%
same,inhibition at 150 mg/kg,"[2]; 2 h before blood sampling, read-out: % of g.r. inhibition guinea pig ex vivo, d = 150 mg/kg, 2 h",0%
"O=C(CNC(=O)C(CCC1CCNCC1)CCC1CCNCC1)NCC(NS(=O)(=O)c1ccc2c(c1)CCCC2)C(=O)O (stereo not drawn) [Example 72, 2-[(5,6,7,8-Tetrahydro-2-naphthalenylsulphonyl)amino]3-{[2-({4-(4-piperidyl)-2-[2-(4-piperidyl)ethyl]butanoyl}amino)acetyl]amino}propanoic Acid Dihydrochloride]",IC50,[1]; [3],340 nM
same,inhibition at 10 mg/kg,[2]; [4],-60%
same,inhibition at 10 mg/kg,[2]; [5],-67%
"O=C(CNC(=O)C(CCC1CCNCC1)CCC1CCNCC1)NCC(NS(=O)(=O)c1ccc2c(c1)CCC2)C(=O)O (stereo not drawn) [Example 70, 2-[(2,3-Dihydro-1H-inden-5-ylsulphonyl)amino]-3-{[2-({4-(4-piperidyl)-2-[2-(4-piperidyl)ethyl]butanoyl}amino)acetyl]amino}propanoic Acid Dihydrochloride]",IC50,[1]; [3],400 nM
same,inhibition at 10 mg/kg,[2]; [4],-32%
same,inhibition at 10 mg/kg,[2]; [5],-34%
"O=C(CNC(=O)C(CCC1CCNCC1)CCC1CCNCC1)NCC(NS(=O)(=O)Cc1ccc2ccccc2c1)C(=O)O (stereo not drawn) [Example 69, 2-{[(2-Naphthylmethyl)sulphonyl]amino}-3-{[2-({4-(4-piperidyl)-2-[2-(4-piperidyl)ethyl]butanoyl}amino)acetyl]amino}propanoic Acid Dihydrochloride]",IC50,[1]; [3],1900 nM
same,inhibition at 10 mg/kg,[2]; [4],-69%
same,inhibition at 10 mg/kg,[2]; [5],-3%
"Cl.Cl.O=C(CNC(=O)C(CCC1CCNCC1)CCC1CCNCC1)NCC(NS(=O)(=O)CCc1ccccc1)C(=O)O (stereo not drawn) [Example 43, 2-[(2-Phenethylsulphonyl)amino]-3-{[2-({4-(4-piperidyl)-2-[2-(4-piperidyl)ethyl]butanoyl}amino)acetyl]amino}propanoic Acid Dihydrochloride]",IC50,[1],1200 nM
same,"% of g.r. inhibition guinea pig ex vivo, d = 10 mg/kg, 1 h","[2]; 10 mg/kg, 1 h before blood sampling",-15%
same,"% of g.r. inhibition guinea pig ex vivo, d = 10 mg/kg, 2 h","[2]; 10 mg/kg, 2 h before blood sampling",-4%
"COc1ccc(S(=O)(=O)NC(CNC(=O)CNC(=O)C(CCC2CCNCC2)CCC2CCNCC2)C(=O)O)cc1 (stereo not drawn) [Example 46, 2-{[(4-Methoxyphenyl)sulphonyl]amino}-3-{[2-({4-(4-piperidyl)-2-[2-(4-piperidyl)ethyl]butanoyl}amino)acetyl]amino}propanoic Acid Dihydrochloride]",IC50,[1]; [3],380 nM
same,inhibition at 10 mg/kg,[2]; [4],-18%
same,inhibition at 10 mg/kg,[2]; [5],-31%
